Reference: article PMC12679550 (ACS Chemical Neuroscience, 2025)
Several values for one entry are separate records, joined by “and”; a condition that tells them apart may be missing. Identical values can stand only once. Entries after “also recorded” stand apart in the source; their conditions may differ. Like-named read-outs stand apart in the source and are kept apart here.

Legend:
D1-dopamine receptors = target: T1, D1-dopamine receptors (Homo sapiens, UniProt P21728); assay: Eurofins Cerep radioligand binding screen; details: 10 μM
T1 construct: Eurofins Cerep; host or cells: cell membrane homogenates
T1 sequence (P21728 whole entry): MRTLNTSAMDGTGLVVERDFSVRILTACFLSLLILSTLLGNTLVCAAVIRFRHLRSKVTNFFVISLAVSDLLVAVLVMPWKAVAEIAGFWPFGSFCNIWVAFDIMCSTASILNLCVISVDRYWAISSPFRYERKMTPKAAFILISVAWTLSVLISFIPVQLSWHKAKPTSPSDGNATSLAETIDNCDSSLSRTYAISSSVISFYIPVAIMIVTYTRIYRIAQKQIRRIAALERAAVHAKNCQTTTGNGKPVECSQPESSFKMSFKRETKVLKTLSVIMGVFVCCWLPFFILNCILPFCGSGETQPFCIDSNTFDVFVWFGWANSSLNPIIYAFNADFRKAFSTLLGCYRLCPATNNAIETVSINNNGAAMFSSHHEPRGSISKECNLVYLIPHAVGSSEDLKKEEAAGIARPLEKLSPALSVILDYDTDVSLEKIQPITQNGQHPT
Experimental: (§1) The compounds were screened at each target once, in duplicate, at 100 nM and 10 μM. […] The assay was valid if the reliability criteria, K i or IC50 values within 1/2 Log of historical values, were met. Radioligand binding assay methods were as previously described with only minor modifications , (see table in Supplementary Figure S4 for radioligands, protein sources, and assay test conditions). Briefly, cell membrane homogenates were incubated with either an antagonist or agonist radioligand in the absence or presence of the test compound in a buffer. A specific unlabeled agonist or antagonist at the target determined nonspecific binding. Following incubation, the samples were filtered rapidly under vacuum through glass fiber filters presoaked in a buffer and rinsed several times with an ice-cold buffer using a 48-sample or 96-sample cell harvester. Using a scintillation cocktail, the filters were counted for radioactivity in a scintillation counter. Compound binding was calculated as a percent inhibition of the binding of the radioactively labeled ligand specific for each target. Preparatory methods for enzyme inhibition assays were similar to radioligand binding assays. These assays involved using a known substrate, stimulus, and/or tracer, and detection methods included LANCE, fluorimetry, photometry, luminescence, or scintillation counting (see table in Supplementary Figure S4). Results of the screening assays showing an inhibition or stimulation higher than 50% were designated “hits” and considered to represent significant effects of the test compounds.

D2-dopamine receptors = target: T2, D2-dopamine receptors (Homo sapiens, UniProt P14416); assay: Eurofins Cerep radioligand binding screen; details: 10 μM
T2 construct: Eurofins Cerep; host or cells: cell membrane homogenates
T2 sequence (P14416 whole entry): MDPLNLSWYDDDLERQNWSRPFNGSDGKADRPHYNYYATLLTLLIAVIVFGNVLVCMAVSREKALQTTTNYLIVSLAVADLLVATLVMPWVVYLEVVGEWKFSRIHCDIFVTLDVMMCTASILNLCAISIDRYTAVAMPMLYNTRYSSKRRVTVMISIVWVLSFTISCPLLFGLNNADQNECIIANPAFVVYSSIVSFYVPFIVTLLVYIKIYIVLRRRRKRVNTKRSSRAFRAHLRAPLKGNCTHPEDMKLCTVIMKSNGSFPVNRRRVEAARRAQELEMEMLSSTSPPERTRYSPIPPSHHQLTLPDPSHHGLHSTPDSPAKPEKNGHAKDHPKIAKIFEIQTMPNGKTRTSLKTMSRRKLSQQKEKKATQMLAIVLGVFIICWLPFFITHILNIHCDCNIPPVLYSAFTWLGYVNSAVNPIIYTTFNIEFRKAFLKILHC
Experimental: as §1

D3-dopamine receptors = target: T3, D3-dopamine receptors (Homo sapiens, UniProt P35462); assay: Eurofins Cerep radioligand binding screen; details: 10 μM
T3 construct: Eurofins Cerep; host or cells: cell membrane homogenates
T3 sequence (P35462 whole entry): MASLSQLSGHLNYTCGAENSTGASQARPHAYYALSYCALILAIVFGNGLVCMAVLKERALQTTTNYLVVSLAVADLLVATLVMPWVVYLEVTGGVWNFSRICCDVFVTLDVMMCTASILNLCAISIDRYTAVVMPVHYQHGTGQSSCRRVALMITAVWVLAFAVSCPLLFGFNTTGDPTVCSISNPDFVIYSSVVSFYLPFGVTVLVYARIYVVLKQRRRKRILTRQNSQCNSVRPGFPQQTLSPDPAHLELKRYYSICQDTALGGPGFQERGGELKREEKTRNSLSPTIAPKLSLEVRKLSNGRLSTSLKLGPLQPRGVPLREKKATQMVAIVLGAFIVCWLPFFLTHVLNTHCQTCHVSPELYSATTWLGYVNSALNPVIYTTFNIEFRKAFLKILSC
Experimental: as §1

L-type Ca2+ channels = assay: Eurofins Cerep radioligand binding screen; details: rat cerebral cortex; Figure S6
Experimental: as §1

N-type Ca2+ channels = target: T4, N-type Ca2+ channels (Rattus norvegicus, UniProt Q02294); assay: Eurofins Cerep radioligand binding screen; details: rat cerebral cortex; Figure S6
T4 construct: Eurofins Cerep (contract screen)
Experimental: as §1

hERG potassium channels = target: T5, hERG potassium channels (Homo sapiens, UniProt Q12809); assay: Eurofins Cerep radioligand binding screen; details: 10 μM
T5 construct: Eurofins Cerep; host or cells: cell membrane homogenates
T5 sequence (Q12809 whole entry): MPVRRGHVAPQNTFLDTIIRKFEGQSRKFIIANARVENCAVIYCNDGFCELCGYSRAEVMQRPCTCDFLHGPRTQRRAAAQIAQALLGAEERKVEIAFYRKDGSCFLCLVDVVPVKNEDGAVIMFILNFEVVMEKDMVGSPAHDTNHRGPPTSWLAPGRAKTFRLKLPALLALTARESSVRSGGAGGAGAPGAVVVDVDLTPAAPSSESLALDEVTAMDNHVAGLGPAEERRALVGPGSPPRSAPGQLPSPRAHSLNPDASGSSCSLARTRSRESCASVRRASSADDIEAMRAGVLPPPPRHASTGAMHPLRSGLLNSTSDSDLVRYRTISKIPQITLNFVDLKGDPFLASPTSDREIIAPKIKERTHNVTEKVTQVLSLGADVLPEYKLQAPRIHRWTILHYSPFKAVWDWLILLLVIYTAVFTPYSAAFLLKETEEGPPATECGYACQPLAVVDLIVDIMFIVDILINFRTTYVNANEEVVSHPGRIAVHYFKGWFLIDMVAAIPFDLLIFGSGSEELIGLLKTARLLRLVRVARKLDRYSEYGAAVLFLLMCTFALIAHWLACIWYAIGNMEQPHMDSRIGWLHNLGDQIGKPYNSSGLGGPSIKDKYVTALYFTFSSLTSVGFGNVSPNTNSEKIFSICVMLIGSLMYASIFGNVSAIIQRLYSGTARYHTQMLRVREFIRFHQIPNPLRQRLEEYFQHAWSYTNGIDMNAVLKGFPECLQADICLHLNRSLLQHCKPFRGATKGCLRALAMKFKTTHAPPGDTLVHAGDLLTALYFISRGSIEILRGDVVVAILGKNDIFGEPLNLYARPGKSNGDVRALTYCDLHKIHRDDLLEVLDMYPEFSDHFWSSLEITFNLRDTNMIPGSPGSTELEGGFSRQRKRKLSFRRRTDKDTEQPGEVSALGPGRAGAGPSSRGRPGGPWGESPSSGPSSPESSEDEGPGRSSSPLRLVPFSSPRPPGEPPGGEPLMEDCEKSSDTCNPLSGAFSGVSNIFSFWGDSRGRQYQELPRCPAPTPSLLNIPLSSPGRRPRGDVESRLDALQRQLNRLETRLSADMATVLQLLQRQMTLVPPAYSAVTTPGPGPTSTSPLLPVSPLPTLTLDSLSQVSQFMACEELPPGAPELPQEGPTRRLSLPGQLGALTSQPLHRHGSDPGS
Experimental: as §1

serotonin transporter = target: T6, serotonin transporter (Homo sapiens, UniProt P31645); assay: Eurofins Cerep radioligand binding screen; details: 10 μM
T6 construct: Eurofins Cerep; host or cells: cell membrane homogenates
T6 sequence (P31645 whole entry): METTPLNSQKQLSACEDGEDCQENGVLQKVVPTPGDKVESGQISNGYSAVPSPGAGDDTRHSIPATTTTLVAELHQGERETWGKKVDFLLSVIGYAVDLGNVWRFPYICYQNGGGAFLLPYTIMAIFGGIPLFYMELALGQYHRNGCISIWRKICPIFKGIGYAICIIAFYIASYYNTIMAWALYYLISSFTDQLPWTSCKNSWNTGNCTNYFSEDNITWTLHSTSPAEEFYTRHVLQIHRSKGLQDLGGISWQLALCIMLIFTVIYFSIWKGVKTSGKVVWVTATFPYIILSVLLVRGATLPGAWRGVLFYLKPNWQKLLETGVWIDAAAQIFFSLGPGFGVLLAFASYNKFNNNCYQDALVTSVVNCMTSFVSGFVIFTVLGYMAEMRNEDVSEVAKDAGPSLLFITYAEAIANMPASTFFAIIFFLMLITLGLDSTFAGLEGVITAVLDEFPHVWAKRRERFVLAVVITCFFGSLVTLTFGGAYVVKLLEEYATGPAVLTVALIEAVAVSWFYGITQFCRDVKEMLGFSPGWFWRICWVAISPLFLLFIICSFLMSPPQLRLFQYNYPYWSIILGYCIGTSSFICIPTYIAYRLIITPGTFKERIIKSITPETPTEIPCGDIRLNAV
Experimental: as §1

[1] = system: voltage-gated sodium channels; assay: Eurofins Cerep radioligand binding screen; details: 10 μM
Experimental: as §1

β2-adrenoceptors = target: T7, β2-adrenoceptors (Homo sapiens, UniProt P07550); assay: Eurofins Cerep radioligand binding screen; details: 10 μM
T7 construct: Eurofins Cerep; host or cells: cell membrane homogenates
Experimental: as §1

α2AR [2] = target: T8, α2AR (Homo sapiens, UniProt P08913)
T8 sequence (P08913 1-465): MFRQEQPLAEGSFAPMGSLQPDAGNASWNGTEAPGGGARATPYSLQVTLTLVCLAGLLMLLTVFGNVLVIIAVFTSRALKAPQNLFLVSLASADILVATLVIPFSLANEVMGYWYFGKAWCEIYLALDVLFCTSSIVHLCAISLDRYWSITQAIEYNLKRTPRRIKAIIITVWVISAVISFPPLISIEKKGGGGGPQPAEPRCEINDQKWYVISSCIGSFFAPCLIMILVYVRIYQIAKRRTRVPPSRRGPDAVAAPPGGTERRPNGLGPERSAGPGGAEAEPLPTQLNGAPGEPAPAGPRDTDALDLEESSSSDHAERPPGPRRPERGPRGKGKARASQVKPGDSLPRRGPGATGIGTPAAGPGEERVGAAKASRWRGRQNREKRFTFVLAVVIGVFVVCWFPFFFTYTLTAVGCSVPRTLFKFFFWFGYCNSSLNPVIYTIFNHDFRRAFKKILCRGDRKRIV

rat α2AR = target: T9, rat α2AR (Rattus norvegicus, UniProt P22909); details: agonist mode; HEK293 cells; Figure S2
T9 sequence (P22909 1-465): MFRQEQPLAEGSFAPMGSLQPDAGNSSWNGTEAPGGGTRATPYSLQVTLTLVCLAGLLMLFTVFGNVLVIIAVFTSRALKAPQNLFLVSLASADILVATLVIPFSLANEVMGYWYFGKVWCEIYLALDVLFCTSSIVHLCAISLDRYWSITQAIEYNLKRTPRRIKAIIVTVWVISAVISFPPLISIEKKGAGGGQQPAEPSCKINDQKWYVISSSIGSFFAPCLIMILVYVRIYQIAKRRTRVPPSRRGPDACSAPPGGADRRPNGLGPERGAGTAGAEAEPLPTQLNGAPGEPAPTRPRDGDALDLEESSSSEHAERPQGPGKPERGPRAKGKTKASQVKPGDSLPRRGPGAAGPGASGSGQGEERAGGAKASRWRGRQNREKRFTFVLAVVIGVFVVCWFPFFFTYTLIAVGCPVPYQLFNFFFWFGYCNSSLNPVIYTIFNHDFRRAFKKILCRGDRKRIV

α2AR [3] = target: T8, α2AR; remark: listed apart in the source
α2AR [4] = target: T8, α2AR; remark: listed apart in the source
[5] = male mice, 165 mg/kg PO; cited from earlier work

## mitragynine
D1-dopamine receptors
  Inhibition of radioligand binding, D1-dopamine receptors: ~73%
D2-dopamine receptors
  Inhibition of radioligand binding, D2-dopamine receptors: ~70%
D3-dopamine receptors
  Inhibition of radioligand binding, D3-dopamine receptors: ~57%
L-type Ca2+ channels
  Affinity at L-type Ca2+ channels: no appreciable affinity
N-type Ca2+ channels
  Affinity at N-type Ca2+ channels: no appreciable affinity
hERG potassium channels
  Inhibition of radioligand binding, hERG potassium channels: ~51%
Serotonin transporter
  Inhibition of radioligand binding, serotonin transporter: ~51%
[1]
  Inhibition of radioligand binding, voltage-gated sodium channels: ~71%
β2-adrenoceptors
  Inhibition of specific radioligand binding, β2-adrenoceptors: > 60%
α2AR [2]; agonist mode, CHO-K1 cells
  Effect on forskolin-stimulated cAMP, human α2AR: did not impact forskolin-stimulated cAMP accumulation
α2AR [2]; read-out: Kb, antagonist, cAMP, human α2AR, antagonism of clonidine, Gaddum-Schild analysis of first plateau
  Kb: 4.17 µM
Rat α2AR
  Effect on forskolin-induced cAMP, rat α2AR in HEK293: no significant functional effects
α2AR [3]; read-out: Kb, antagonist, β-arrestin, antagonist mode vs EC80 (0.01 μM) UK 14,304, Cheng–Prusoff
  Kb: 5.01 µM
α2AR [3]; α2AR-expressing CHO-K1 cells
  β-arrestin2 recruitment, agonist mode: did not recruit β-arrestin2
α2AR [4]; Figure S1
  Activation of α2AR-Gαs(short): did not activate α2AR–Gαs; also recorded: no effect
α2AR [4]; concentrations up to 30 μM
  Activation of the seven Gαi/o-protein subtypes coupled to α2AR: did not activate any of the seven Gαi/o-protein subtypes
α2AR [4]; data not shown
  Activation of Gαq or Gα11 via α2ARs: no effect
α2AR [4]; read-out: Kb, antagonist, αi1, α2AR-Gαi1, antagonism of clonidine, Gaddum-Schild
  Kb: 5.65 µM
α2AR [4]; α2AR-Gαgust
  EC50, αgust: inactive
α2AR [4]; α2AR-Gαi2
  EC50, αi2: inactive
α2AR [4]; α2AR-Gαi3
  EC50, αi3: inactive
α2AR [4]; α2AR-GαoA
  EC50, αoA: inactive
α2AR [4]; α2AR-GαoB
  EC50, αoB: inactive
α2AR [4]; α2AR-Gαz
  EC50, αz: inactive
[5]
  Peak brain concentration: approximately 35 μg/g of wet brain tissue and ~88 μM
